Results on 22 compounds are retold here after patent publication US20190047966A1, “NOVEL COMPOUND AND PHARMACOLOGICALLY ACCEPTABLE SALT THEREOF” (MEIJI SEIKA PHARMA CO., LTD., priority 2016, published 2019).

Assay [1] concerns the target T1, human histamine H4 receptor (Homo sapiens, UniProt Q9H3N8).
T1 construct: purchased PerkinElmer Inc; host or cells: CHO-K1
Nature of the assay: Evaluation of Human H4 Receptor Affinity ([3H]histamine binding). To be noted: inhibition constant Ki, CHO-K1 membrane preparation, read-out: Evaluation of H4 Receptor Affinity. How it is done: Test Example 2: Evaluation of Human H4 Receptor Affinity
Membrane preparation from recombinant CHO-K1 cell expressing the human histamine H4 receptor (PerkinElmer Inc.), radiolabeled ligand 8.2 nM [^3H]histamine (PerkinElmer Inc.), and compounds dissolved in DMSO were reacted at 25° C. for 90 minutes in a buffering solution containing 50 mM tris-hydrochloric acid, pH 7.4, and 1.25 mM EDTA on a 96 well plate, followed by filtration using a GF/B filter (PerkinElmer Inc.) pretreated with 0.3% polyethylenimine. The residue was washed four times with a buffering solution of 50 mM tris-hydrochloric acid, pH 7.4. Thereafter, a scintillation cocktail (MicroScint 20: PerkinElmer Inc.) was added to the GF/B filter, and the radioactivity of each well was measured using a liquid scintillation counter for 96-well (TopCount: PerkinElmer Inc.). The non-specific binding was evaluated in the presence of 1.0 μM histamine. The inhibition constant Ki was calculated from the 50% inhibitory concentration (IC50 value) obtained in each test and the Kd value (5.7 nM) unique to this assay system, according to the Cheng-Prusoff equation.

Assay [2] addresses human histamine H1 receptor (Homo sapiens, UniProt P35367). Briefly: Evaluation of Human H1 Receptor Affinity ([3H]pyrilamine binding). Details: purchased PerkinElmer Inc; host or cells: CHO-K1. The following applies: inhibition constant Ki, CHO-K1 membrane preparation. How it is done:
Test Example 1: Evaluation of Human H1 Receptor Affinity
Membrane preparation from recombinant CHO-K1 cell expressing the human histamine H1 receptor (PerkinElmer Inc.), radiolabeled ligand 1.2 nM [^3H]pyrilamine (PerkinElmer Inc.), and test compounds dissolved in DMSO were reacted at 25° C. for 3 hours in a buffering solution containing 50 mM tris-hydrochloric acid, pH 7.4, and 5 mM magnesium chloride on a 96 well plate, followed by filtration using a GF/B filter (PerkinElmer Inc.) pretreated with 0.3% polyethylenimine. The residue was washed four times with a buffering solution of 50 mM tris-hydrochloric acid, pH 7.4. Thereafter, a scintillation cocktail (MicroScint 20: PerkinElmer Inc.) was added to the GF/B filter, and the radioactivity of each well was measured using a liquid scintillation counter for 96-well (TopCount: PerkinElmer Inc.). The non-specific binding was evaluated in the presence of 1.0 μM pyrilamine. The inhibition constant Ki was calculated from the 50% inhibitory concentration (IC50 value) obtained in each test and the Kd value (1.1 nM) unique to this assay system, according to the Cheng-Prusoff equation.

Counter-ions that a name gives are not always drawn.

Chain of human histamine H1 receptor (P35367 whole entry): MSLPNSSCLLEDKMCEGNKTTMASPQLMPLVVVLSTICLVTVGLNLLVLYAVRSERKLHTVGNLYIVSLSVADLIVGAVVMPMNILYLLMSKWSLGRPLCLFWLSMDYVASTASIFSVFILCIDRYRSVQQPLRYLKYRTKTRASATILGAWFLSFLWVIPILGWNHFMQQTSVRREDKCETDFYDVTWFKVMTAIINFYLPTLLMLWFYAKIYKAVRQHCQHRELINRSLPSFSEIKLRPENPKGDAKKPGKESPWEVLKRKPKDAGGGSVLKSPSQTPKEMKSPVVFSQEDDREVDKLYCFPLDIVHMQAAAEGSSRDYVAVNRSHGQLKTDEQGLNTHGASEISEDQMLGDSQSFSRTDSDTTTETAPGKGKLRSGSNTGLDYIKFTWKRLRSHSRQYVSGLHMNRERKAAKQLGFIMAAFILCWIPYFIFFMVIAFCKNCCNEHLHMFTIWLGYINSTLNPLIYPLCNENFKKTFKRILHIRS
T1 sequence (Q9H3N8 whole entry): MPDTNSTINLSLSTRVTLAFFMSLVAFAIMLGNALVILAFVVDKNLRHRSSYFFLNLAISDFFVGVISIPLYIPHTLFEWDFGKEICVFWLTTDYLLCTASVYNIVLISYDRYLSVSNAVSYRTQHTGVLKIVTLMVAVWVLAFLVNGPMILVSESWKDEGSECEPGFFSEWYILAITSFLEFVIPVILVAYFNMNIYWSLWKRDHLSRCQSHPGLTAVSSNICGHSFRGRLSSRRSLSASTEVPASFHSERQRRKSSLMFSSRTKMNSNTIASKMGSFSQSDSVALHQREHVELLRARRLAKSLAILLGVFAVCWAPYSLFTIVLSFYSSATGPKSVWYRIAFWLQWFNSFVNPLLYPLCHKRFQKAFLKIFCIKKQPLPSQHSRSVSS

Consider `Nc1nc2c(c(N3CCN(CCOCC4CNC4)CC3)n1)CCc1cc(OCc3ccc(OC(F)(F)F)cc3)ccc1-2` [38(b), 4-(4-(2-(azetidin-3-ylmethoxy)ethyl)piperazin-1-yl)-8-((4-(trifluoromethoxy)benzyl)oxy)-5,6-dihydrobenzo[h]quinazolin-2-amine], for which the Ki in assay [1] and in assay [2] was < 100 nM each time.
Regarding `COC(=O)c1ccc(COCCN2CCN(c3nc(N)nc4c3CCc3cc(OCc5ccc(Cl)cc5)ccc3-4)CC2)o1` [127(a), methyl 5-((2-(4-(2-amino-8-((4-chlorobenzyl)oxy)-5,6-dihydrobenzo[h]quinazolin-4-yl)piperazin-1-yl)ethoxy)methyl)furan-2-carboxylate], the Ki in assay [1] and in assay [2] was < 100 nM throughout.
As for `COC(=O)c1ccc(COCCN2CCN(c3nc(N)nc4c3CCc3cc(OCc5ccc(Cl)cc5)ccc3-4)CC2)cc1` [128(a), methyl 4-((2-(4-(2-amino-8-((4-chlorobenzyl)oxy)-5,6-dihydrobenzo[h]quinazolin-4-yl)piperazin-1-yl)ethoxy)methyl)benzoate], the Ki in assay [1] is 100 to 500 nM; in assay [2], < 100 nM.
The matching figures for `Nc1nc2c(c(N3CCN(CCOCc4ccc(C(=O)O)cc4)CC3)n1)CCc1cc(OCc3ccc(Cl)cc3)ccc1-2` [128(b), 4-((2-(4-(2-amino-8-((4-chlorobenzyl)oxy)-5,6-dihydrobenzo[h]quinazolin-4-yl)piperazin-1-yl)ethoxy)methyl)benzoic acid]: < 100 nM and < 100 nM.
For `COC(=O)c1ccc(F)c(COCCN2CCN(c3nc(N)nc4c3CCc3cc(OCc5ccc(Cl)cc5)ccc3-4)CC2)c1` [129(a), methyl 3-((2-(4-(2-amino-8-((4-chlorobenzyl)oxy)-5,6-dihydrobenzo[h]quinazolin-4-yl)piperazin-1-yl)ethoxy)methyl)-4-fluorobenzoate] the same measures were 100 to 500 nM and < 100 nM.
On to `COC(=O)c1cccc(OCCCN2CCN(c3nc(N)nc4c3CCc3cc(OCc5ccc(Cl)cc5)ccc3-4)CC2)c1` [131(a), methyl 3-(3-(4-(2-amino-8-((4-chlorobenzyl)oxy)-5,6-dihydrobenzo[h]quinazolin-4-yl)piperazin-1-yl)propoxy)benzoate], for which the Ki in assay [1] is 100 to 500 nM; in assay [2] it was < 100 nM.
On to `Nc1nc2c(c(N3CCN(CCCOc4cccc(C(=O)O)c4)CC3)n1)CCc1cc(OCc3ccc(Cl)cc3)ccc1-2` [131(b), 3-(3-(4-(2-amino-8-((4-chlorobenzyl)oxy)-5,6-dihydrobenzo[h]quinazolin-4-yl)piperazin-1-yl)propoxy)benzoic acid], for which the Ki in assay [1] was 100 to 500 nM; in assay [2], < 100 nM.
For the compound `CCOC(=O)c1csc(COCCN2CCN(c3nc(N)nc4c3CCc3cc(OCc5ccc(Cl)cc5)ccc3-4)CC2)n1` [135(a), ethyl 2-((2-(4-(2-amino-8-((4-chlorobenzyl)oxy)-5,6-dihydrobenzo[h]quinazolin-4-yl)piperazin-1-yl)ethoxy)methyl)thiazole-4-carboxylate], the Ki in assay [1] and in assay [2] was < 100 nM each time.
As for `Nc1nc2c(c(N3CCN(CCOCc4nc(C(=O)O)cs4)CC3)n1)CCc1cc(OCc3ccc(Cl)cc3)ccc1-2` [135(b), 2-((2-(4-(2-amino-8-((4-chlorobenzyl)oxy)-5,6-dihydrobenzo[h]quinazolin-4-yl)piperazin-1-yl)ethoxy)methyl)thiazole-4-carboxylic acid dihydrochloride], the Ki in assay [1] and in assay [2] was < 100 nM in each case.
On to `CCOC(=O)C1(C#N)CCC(COCCN2CCN(c3nc(N)nc4c3CCc3cc(OCc5ccc(Cl)cc5)ccc3-4)CC2)CC1` (stereo not drawn) [159(a), ethyl cis- or trans-4-((2-(4-(2-amino-8-((4-chlorobenzyl)oxy)-5,6-dihydrobenzo[h]quinazolin-4-yl)piperazin-1-yl)ethoxy)methyl)-1-cyanocyclohexane-1-carboxylate], for which the Ki in assay [1] is 100 to 500 nM; in assay [2], < 100 nM.
Consider `N#CC1(C(=O)O)CCC(COCCN2CCN(c3nc(N)nc4c3CCc3cc(OCc5ccc(Cl)cc5)ccc3-4)CC2)CC1` (stereo not drawn) [159(b), cis- or trans-4-((2-(4-(2-amino-8-((4-chlorobenzyl)oxy)-5,6-dihydrobenzo[h]quinazolin-4-yl)piperazin-1-yl)ethoxy)methyl)-1-cyanocyclohexane-1-carboxylic acid hydrochloride], for which the Ki in assay [1] and in assay [2] was < 100 nM throughout.
`CCOC(=O)C1(C#N)CCC(COCCN2CCN(c3nc(N)nc4c3CCc3cc(OCc5ccc(Cl)cc5)ccc3-4)CC2)CC1` (stereo not drawn) [160(a), ethyl trans- or cis-4-((2-(4-(2-amino-8-((4-chlorobenzyl)oxy)-5,6-dihydrobenzo[h]quinazolin-4-yl)piperazin-1-yl)ethoxy)methyl)-1-cyanocyclohexane-1-carboxylate]: the Ki in assay [1] is 100 to 500 nM; in assay [2], < 100 nM.
The matching figures for `N#CC1(C(=O)O)CCC(COCCN2CCN(c3nc(N)nc4c3CCc3cc(OCc5ccc(Cl)cc5)ccc3-4)CC2)CC1` (stereo not drawn) [160(b), trans- or cis-4-((2-(4-(2-amino-8-((4-chlorobenzyl)oxy)-5,6-dihydrobenzo[h]quinazolin-4-yl)piperazin-1-yl)ethoxy)methyl)-1-cyanocyclohexane-1-carboxylic acid]: < 100 nM and < 100 nM.
As to `CCOC(=O)C1CCC(O)(COCCN2CCN(c3nc(N)nc4c3CCc3cc(OCc5ccc(Cl)cc5)ccc3-4)CC2)CC1` (stereo not drawn) [166(a), ethyl cis- or trans-4-((2-(4-(2-amino-8-((4-chlorobenzyl)oxy)-5,6-dihydrobenzo[h]quinazolin-4-yl)piperazin-1-yl)ethoxy)methyl)-4-hydroxycyclohexane-1-carboxylate], the Ki is 100 to 500 nM in assay [1] and < 100 nM in assay [2].
Consider `Nc1nc2c(c(N3CCN(CCOCC4(O)CCC(C(=O)O)CC4)CC3)n1)CCc1cc(OCc3ccc(Cl)cc3)ccc1-2` (stereo not drawn) [166(b), cis- or trans-4-((2-(4-(2-amino-8-((4-chlorobenzyl)oxy)-5,6-dihydrobenzo[h]quinazolin-4-yl)piperazin-1-yl)ethoxy)methyl)-4-hydroxycyclohexane-1-carboxylic acid], for which the Ki in assay [1] was 100 to 500 nM; in assay [2] it was < 100 nM.
For `Nc1nc2c(c(N3CCNCC3)n1)CCc1cc(OCc3ccc(Cl)cc3)ccc1-2` [Example 4, 8-((4-chlorobenzyl)oxy)-4-(piperazin-1-yl)-5,6-dihydrobenzo[h]quinazolin-2-amine], the Ki in assay [1] and in assay [2] was < 100 nM in each case.
Consider `Nc1nc2c(c(N3CCNCC3)n1)CCc1cc(OCc3ccccc3)ccc1-2` [Example 5, 8-(benzyloxy)-4-(piperazin-1-yl)-5,6-dihydrobenzo[h]quinazolin-2-amine], for which the Ki in assay [1] and in assay [2] was < 100 nM in each case.
Consider `Nc1nc2c(c(N3CCNCC3)n1)CCc1cc(OCc3ccc(OC(F)(F)F)cc3)ccc1-2` [Example 6, 4-(piperazin-1-yl)-8-((4-(trifluoromethoxy)benzyl)oxy)-5,6-dihydrobenzo[h]quinazolin-2-amine], for which the Ki in assay [1] and in assay [2] was < 100 nM each time.
As to `Nc1nc2c(c(N3CCN(CCO)CC3)n1)CCc1cc(OCc3ccccc3)ccc1-2` [Example 7, 2-(4-(2-amino-8-(benzyloxy)-5,6-dihydrobenzo[h]quinazolin-4-yl)piperazin-1-yl)ethan-1-ol], the Ki in assay [1] was 100 to 500 nM; in assay [2], < 100 nM.
For `Nc1nc2c(c(N3CCN(CCOCCO)CC3)n1)CCc1cc(OCc3ccc(Cl)cc3)ccc1-2` [Example 8, 2-(2-(4-(2-amino-8-((4-chlorobenzyl)oxy)-5,6-dihydrobenzo[h]quinazolin-4-yl)piperazin-1-yl)ethoxy)ethan-1-ol] the same measures were < 100 nM and < 100 nM.
The matching figures for `Nc1nc2c(c(N3CCN(CCOCCOCCO)CC3)n1)CCc1cc(OCc3ccc(Cl)cc3)ccc1-2` [Example 9, 2-(2-(2-(4-(2-amino-8-((4-chlorobenzyl)oxy)-5,6-dihydrobenzo[h]quinazolin-4-yl)piperazin-1-yl)ethoxy)ethoxy)ethan-1-ol]: < 100 nM and < 100 nM.
`N#CCOCCOCCN1CCN(c2nc(N)nc3c2CCc2cc(OCc4ccc(Cl)cc4)ccc2-3)CC1` [Example 10, 2-(2-(2-(4-(2-amino-8-((4-chlorobenzyl)oxy)-5,6-dihydrobenzo[h]quinazolin-4-yl)piperazin-1-yl)ethoxy)ethoxy)acetonitrile]: the Ki in assay [1] and in assay [2] was < 100 nM throughout.
